We go through five compounds from ChEMBL document CHEMBL2331208, “Steroids glycosylated with both D- and L-arabinoses from the South China Sea gorgonian Dichotella gemmacea” (J Nat Prod, 2013).

In one experiment the test system is MG-63. The experiment in a line: Cytotoxicity against human MG63 cells by MTT assay. It counts as functional, cell-based. (Tetrazolium dyes change colour on reduction, which living cells bring about.)
A further experiment deals with A549. In words: Cytotoxicity against human A549 cells by MTT assay. It counts as functional, cell-based.

A word on the pIC50: it is the IC50 on a negative log10 scale, so that one unit is a factor of ten. Low values mean a large IC50, high ones a small IC50.

pIC50: −log10 of the molar value. Structures can show the parent of a compound that is named as a salt. A value given as a limit tells only on which side of the number the result lay.

In the case of `COc1cccc2c1C(=O)c1c(O)c3c(c(O)c1C2=O)C[C@@](O)(C(=O)CO)C[C@@H]3O[C@H]1C[C@H](N)[C@H](O)[C@H](C)O1` [DOXORUBICIN HYDROCHLORIDE], the pIC50 in the experiment on MG-63 was 5.47. Regarding `CC(=O)OC(C)(C)CCC[C@@H](C)[C@H]1CC[C@H]2[C@@H]3CC=C4C[C@@H](O[C@H]5OC[C@H](O)[C@H](O)[C@H]5O)CC[C@]4(CO)[C@H]3CC[C@]12C` [JUNCEELLOSIDE C], the figures for the pIC50 in the experiment on MG-63 and in the experiment on A549 were 4.76 and 4.94, respectively. For the compound `C=C(CC[C@@H](C)[C@H]1CC[C@H]2[C@@H]3CC=C4C[C@@H](O[C@H]5OC[C@H](O)[C@H](O)[C@H]5O)CC[C@]4(CO)[C@H]3CC[C@]12C)C(C)(C)OC(C)=O` [JUNCEELLOSIDE E], the pIC50 in the experiment with MG-63 and in the experiment on A549 was less than 4.30 each time.

On to `CC(=O)OC(C)(C)C/C=C/[C@@H](C)[C@H]1CC[C@H]2[C@@H]3CC=C4C[C@@H](O[C@@H]5OC[C@@H](O)[C@@H](O)[C@@H]5O)CC[C@]4(CO)[C@H]3CC[C@]12C` [JUNCEELLOSIDE F], for which the pIC50 in the experiment with MG-63 was 4.64; in the experiment with A549, less than 4.30. For `CC(=O)O[C@@H]1[C@H](O[C@H]2CC[C@@]3(CO)C(=CC[C@@H]4[C@@H]3CC[C@]3(C)[C@@H]([C@H](C)CCCC(C)(C)OC(C)=O)CC[C@@H]43)C2)OC[C@@H](O)[C@H]1O` [JUNCEELLOSIDE G] the same measures were 4.64 and 4.86.
